Assay results reported in patent publication US8163805B2, “Small molecule antagonists of Bcl-2 family proteins” (The Regents of the University of Michigan, priority 2001, dated 2012).
Where two headings read alike, the source gives them in different places.

How the values were obtained:
[1] = system: LnCap prostate cancer cells; assay: MTT-based 5-day cell proliferation, LnCap; design: species or system human
Excerpt: (§1) The present invention is not limited to any mechanism. Indeed, a mechanistic understanding of the invention is unnecessary to practice (make and use) the present compositions and methods.

[2] = molecular target: T1, Bcl-XL and pro-apoptotic protein Bim (Homo sapiens, UniProt Q07817); assay: Immunoprecipitation of Bcl-XL/Bim heterodimerization in HT-29 cells; assay type: cell-based; details: HT-29, starting at 8 hrs
T1 construct: endogenous in cells; host or cells: HT-29 colon cancer cells
Description: In one embodiment HT-29 colon cancer cells, which express only the Bcl-xL protein, were treated with (−)-gossypol at various doses for 4 hrs, 8 hrs, and 12 hrs. To avoid the detergent effects on the dimerization of Bcl-xL proteins in immunoprecipitation experiments, following the treatment of cells with gossypol, immunoprecipitation of cell lysates was carried out in the Chaps buffer with the anti-Bcl-XL antibody. The Bcl-XL bound proteins were then immunoblotted with anti-Bim antibody. […] There is no change in the total Bcl-XL or Bim protein in the same lysates following the (−)-gossypol treatment.

UM-SCC-74B = assay: 6-day MTT cell growth, UM-SCC-74B; assay type: cell-based, human; details: read-out: IC50, inhibition of cell growth
Description: (§2) UM-SCC and human fibroblast cell lines were continuously exposed to varying concentrations of (−)-gossypol in 6-day MTT cell survival assays. Control wells contained media (DMEM) with vehicle alone. For each data point n=5.
(§3) Ten squamous cell carcinoma cell lines established at the University of Michigan (UM-SCC) and three human fibroblast lines were grown in Dulbecco's modified Eagle's medium (DMEM) supplemented with 10% fetal bovine serum. UM-SCC cell lines originated from the larynx (n=2; UM-SCC-12, -23), oral cavity/oropharynx (n=5; UM-SCC-1, -6, -14A, -74B, -81B), hypopharynx (n=1; UM-SCC-22A) and metastases from laryngeal cancers (n=2; UM-SCC-17B, -25). Human fibroblast cell lines originated from surgical specimens (fibroblast cell lines 2 and 3) and neonatal foreskin samples (fibroblast cell line 1).
(§4) Logarithmically growing cell lines were cultured, washed, counted, and plated at 5,000-15,000 cells per well in duplicate wells of 96-well plates and incubated in DMEM overnight. […] The MTT assay measures cell survival based on mitochondrial conversion of MTT from a soluble tetrazolium salt into an insoluble colored formazan precipitate, which is dissolved in dimethyl sulfoxide and quantitated by spectrophotometry. […] Percent absorbance relative to control was plotted as a linear function of drug concentration.

UM-SCC-1 = assay: Trypan blue exclusion cell death, UM-SCC-1; assay type: cell-based, human; details: 10 μM, 48 hour
Description: Cells were seeded in 24 or 96-well-plates and gossypol compounds were prepared at 2-10 fold dilutions in suitable medium. […] Cell viability was then determined by the trypan-blue assays. Inhibition of cell growth was determined by treating cells with gossypol compounds for 3-6 days. Cell inhibition was determined using XTT. In some embodiments, MTT assays are used to determine cell inhibition.

UM-SCC-81B = assay: 6-day MTT cell growth, UM-SCC-81B; assay type: cell-based, human; details: read-out: IC50, inhibition of cell growth
Description: as §2, §3, §4

UM-SCC-6 = assay: 6-day MTT cell growth, UM-SCC-6; assay type: cell-based, human; details: read-out: IC50, inhibition of cell growth
Description: as §2, §3, §4

PARP protein = PARP protein cleavage; assay type: cell-based; details: compared under identical doses
[3] = system: A549 non-small cell lung carcinoma xenograft; assay: A549 non-small cell lung carcinoma xenograft, (−)-gossypol with paclitaxel; details: Table 13; combinations of G- with paclitaxel at 7.5 mg/kg
UM-SCC-23 = assay: 6-day MTT cell growth, UM-SCC-23; assay type: cell-based, human; details: read-out: IC50, inhibition of cell growth
Description: as §2, §3, §4

Bcl-XL [4] = molecular target: T2, Bcl-XL (Homo sapiens, UniProt Q07817, DEL45-84); assay: 15N HSQC NMR binding to Bcl-XL
T2 construct: His-tag (N); made in house

UM-SCC-14A [5] = assay: 6-day MTT cell growth, UM-SCC-14A; assay type: cell-based, human; details: read-out: IC50, inhibition of cell growth
Description: as §2, §3, §4

[6] = system: normal human fibroblast WI-38 cells; assay: MTT-based 5-day cell proliferation, WI-38; details: WI-38, FIG. 42
Excerpt: as §1

Bcl-XL [7] = molecular target: T2, Bcl-XL; assay: FP binding assay, Flu-Bid 21-residue peptide and Bcl-XL (FIG. 5, 46)
[8] = system: Fib-1 (fibroblast cell line 1); assay: 6-day MTT cell growth, Fib-1; assay type: cell-based, human; details: read-out: IC50, inhibition of cell growth
Description: as §2, §3, §4

fibroblast cell lines = assay: Flow cytometric TUNEL apoptosis assay, fibroblast cell lines; assay type: cell-based, human; details: 10 μM, 48-hour
Description: (§5) Briefly, FIGS. 24A-24C show apoptosis after (−)-gossypol as measured by a fluorescent flow cytometric TUNEL assay. Open peaks represent BrdU labeling of untreated cells. Shaded peaks indicate BrdU labeling of cell populations following 48-hour treatment with 10 μM (−)-gossypol; FIG. 24A, UM-SCC-cell lines with wild type p53; FIG. 24B, UM-SCC-cell lines with mutant p53; and FIG. 24C normal fibroblast cells.
(§6) Apoptosis of UM-SCC cell lines following (−)-gossypol treatment was quantitatively detected by enzymatic labeling of DNA strand breaks using terminal deoxynucleotidyltransferase (TdT) and Alexa Fluor-BrdUTP, known as the TdT-UTP nick end-labeling (TUNEL) assay by flow cytometry. Cells were exposed to (−)-gossypol for 48 hours, harvested, fixed and TUNEL stained according to the manufacturer's protocol (Molecular Probes Inc., Eugene, Oreg.). Ten thousand cells were analyzed per sample using excitation of Alexa Fluor at 488 nm. Apoptotic index (AI) was defined as percent of apoptotic cells in the treatment population minus that in the vehicle control population.

HNSCC cell lines = assay: 6-day MTT cell survival, mean over HNSCC cell lines; assay type: cell-based, human
[9] = system: PC-3 human prostate cancer bilateral xenografts; assay: PC-3 xenograft, (−)-gossypol alone and with cisplatin (Table 11); assay type: in vivo, NCr-nu nude mouse; details: Table 11
UM-SCC-14A [10] = assay: Flow cytometric TUNEL apoptosis assay, UM-SCC-14A; assay type: cell-based, human; details: 10 μM, 48-hour
Description: as §5, §6

[11] = 8 Gy radiation with 4 μM gossypol
[12] = 8 Gy radiation with 5 μM gossypol

T2 sequence (Q07817 with tags, fused parts or gaps DEL45-84 limits assumed): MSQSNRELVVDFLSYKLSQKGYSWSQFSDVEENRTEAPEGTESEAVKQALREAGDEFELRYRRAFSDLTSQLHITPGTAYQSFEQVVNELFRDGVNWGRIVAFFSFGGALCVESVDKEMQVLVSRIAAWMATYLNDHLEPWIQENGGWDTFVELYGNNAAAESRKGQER
T1 sequence (Q07817 whole entry): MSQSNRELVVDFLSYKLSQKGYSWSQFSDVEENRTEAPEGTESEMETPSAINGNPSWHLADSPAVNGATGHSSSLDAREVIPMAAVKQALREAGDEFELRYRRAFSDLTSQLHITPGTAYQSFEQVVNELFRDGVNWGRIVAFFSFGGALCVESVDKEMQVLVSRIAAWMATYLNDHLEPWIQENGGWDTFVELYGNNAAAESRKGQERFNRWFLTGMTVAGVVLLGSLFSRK

With `Cc1cc2c(C(C)C)c(O)c(O)c(C=O)c2c(O)c1-c1c(C)cc2c(C(C)C)c(O)c(O)c(C=O)c2c1O` [(−)-gossypol] the “potency in inhibiting cancer cell growth relative to (+)-gossypol” value [1] was 5-10 times, the “potency in inhibiting cancer cell growth relative to racemic gossypol” value [1] was 2 times and the “binding of Bcl-XL and Bim in intact cells” value [2] was “dose-dependent decrease in the binding of Bcl-XL and pro-apoptotic protein Bim”. The IC50 (UM-SCC-74B) was 4 µM, the “surviving (trypan blue excluding) fraction relative to untreated controls” value (UM-SCC-1) was 20% and the IC50 (UM-SCC-81B) was 4 µM. For the same compound, the IC50 (UM-SCC-6) was 11 µM, the “cleavage of PARP protein” value (PARP protein) was “more cleavage of PARP protein” and the “Combination Index (CI)” value (PC-3 cells; [11]) was 0.34. For the same compound, the “Dose Reduction Index (DRI)” value (PC-3 cells; [11]) was 4.3, the “Combination Index (CI)” value (PC-3 cells; [12]) was 0.27 and the “Dose Reduction Index (DRI)” value (PC-3 cells; [12]) was 6.1. For the same compound, the “reduction in colony formation from controls” value (PC-3 cells; with 6 Gy X-ray) was 10 fold, the “reduction in colony formation from controls” value (PC-3 cells; with 8 Gy X-ray) was 20 fold and the “tumor growth inhibition compared with vehicle control” value [3] was 76% tumor growth inhibition as. For the same compound, the IC50 (UM-SCC-23) was 1.5 µM, the “binding to Bcl-XL by NMR” value (Bcl-XL [4]) was “bind to the BH3 binding groove in Bcl-XL” and the IC50 (UM-SCC-14A [5]) was 11 µM. The cytotoxicity [6] was “very limited effect”, the “inhibition of binding between Bad BH3 peptide and Bcl-XL” value (Bcl-XL [7]) was “directly inhibit binding between Bad BH3 peptide and Bcl-XL” and the IC50 [8] was 20 µM. For the same compound, the induction of apoptosis (fibroblast cell lines) was “no induction of apoptosis”, the IC50 (HNSCC cell lines) was 5.57 ± 2.57 µM and the “tumor growth inhibition compared with vehicle control” value ([9]; (−)-gossypol 7.5 mg/kg p.o. in combination with cisplatin 5 mg/kg i.v.) was “cisplatin at 5 mg/kg achieved 65%”. The “weight loss during the treatment” value ([9]; combination regimen of (−)-gossypol 7.5 mg/kg p.o. with cisplatin 5 mg/kg i.v.) was “CDDP alone, and 20-23% weight” and the “apoptotic index (AI)” value (UM-SCC-14A [10]) was 14.1%.
